This passage reports TGI and GI50 results from PubChem BioAssay (NCI).

Some test systems named below: HOP-18 NSCLC; RXF-631 renal; XF 498 CNS; M19-MEL melanoma; LXFL 529 NSCLC; KM20L2 colon; DLD-1 colon; SNB-78 CNS; MDA-N.
What all share (test): inhibition of tumour cell growth, NCI panel, 48 h

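Step 1: Grow cells in 96-well plates. Step 2: Expose to compound for 48 hours at 5 concentrations. Step 3: Interpolate endpoints linearly; if unreached, use highest concentration. Here, GI50 denotes the concentration required for 50% inhibition of growth. Definition used: TGI = concentration required for complete inhibition of growth.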

As for `C=CCNC(=O)N(CCCCC(NC(C)=O)C(=O)NCc1ccccc1)Cc1ccccc1` (configuration not stated), the TGI with HOP-18 NSCLC, with RXF-631 renal, with XF 498 CNS, in the test with M19-MEL melanoma, in the test on LXFL 529 NSCLC and with KM20L2 colon was above 100 µM each time.
Take `CCc1ccccc1NC(=O)C1=C(C)NC(C)=C(C(=O)Nc2ccccc2CC)C1c1ccccc1Cl`: the TGI in the test with XF 498 CNS, in the test on M19-MEL melanoma, in the test with DLD-1 colon, in the test on LXFL 529 NSCLC, in the test on KM20L2 colon and in the test on SNB-78 CNS was above 100 µM throughout.
`O/N=C1/C(=C/c2ccc3c(c2)OCO3)CCCC1C(NO)c1ccc2c(c1)OCO2` (configuration not stated): the TGI is 42.5 µM with HOP-18 NSCLC; 62.2 µM with XF 498 CNS; 62 µM in the test on M19-MEL melanoma; 98.8 µM in the test on DLD-1 colon; 51.4 µM in the test on LXFL 529 NSCLC; 34.6 µM in the test with KM20L2 colon. This compound also displayed a TGI with SNB-78 CNS of 87.7 µM.
As to `COc1ccc(/C=N/N=C(\N)NO)cc1O`, the TGI in the test on HOP-18 NSCLC, in the test with DLD-1 colon, with LXFL 529 NSCLC and in the test with SNB-78 CNS was above 100 µM each time.
Turning to `N.N.N.N.N.NC(=O)c1nn[n-]n1.[Cl-].[Co+3]`, the GI50 in the test on HOP-18 NSCLC, with DLD-1 colon, in the test on LXFL 529 NSCLC, with KM20L2 colon and in the test on SNB-78 CNS was above 100 µM in each case. Also, the TGI in the test with HOP-18 NSCLC, in the test on DLD-1 colon, in the test on LXFL 529 NSCLC, in the test with KM20L2 colon and in the test on SNB-78 CNS was above 100 µM throughout.
On to `CCOC(=O)C12CCCC1(O)N(NC(=O)OC(C)(C)C)C(C)=C2C(=O)OC` (configuration not stated), for which the TGI with HOP-18 NSCLC, in the test with RXF-631 renal, in the test on XF 498 CNS, in the test with M19-MEL melanoma, in the test on DLD-1 colon and in the test with LXFL 529 NSCLC was above 100 µM throughout. The TGI with KM20L2 colon and in the test with SNB-78 CNS was above 100 µM throughout.
With `O.O.[NH-]C1(C(=O)O)CCCC1.[NH-]C1(C(=O)O)CCCC1.[Ni+2]`, in the test with MDA-N, the GI50 is above 100 µM and the TGI was above 100 µM.
Turning to `O=C1CC(O)CC(=O)C1=C(O)CCCCCCCCCCc1ccccc1` (configuration not stated), the TGI with HOP-18 NSCLC, with RXF-631 renal, in the test with XF 498 CNS, in the test on M19-MEL melanoma, in the test with DLD-1 colon and in the test with LXFL 529 NSCLC was above 100 µM each time. For the same compound, the TGI in the test with KM20L2 colon and in the test with SNB-78 CNS was above 100 µM in each case.
For the compound `CCOc1cccc(/C=N/N=C2\C(=O)Nc3c(Cl)cc(Cl)cc32)c1O`, the TGI in the test with MDA-N was above 100 µM.
For the compound `COC(=O)CC1C[C@H](C#N)N(C(=O)c2ccccc2)C[C@@H]1CC[N+](=O)[O-]` (some centres not stated), the TGI in the test with HOP-18 NSCLC, in the test on XF 498 CNS, in the test on M19-MEL melanoma, in the test on DLD-1 colon, with LXFL 529 NSCLC and with KM20L2 colon was above 100 µM each time. Moreover, in the test with SNB-78 CNS, the TGI was above 100 µM.
As to `COC(=O)C1CC23CCCN4CCC5(c6ccccc6N(C=O)C15CC2)C43` (configuration not stated), the TGI in the test with MDA-N is above 100 µM.
As for `CC1=C(C(=O)Nc2cc(=O)n(C)c(=O)n2C)C(c2ccco2)C(C(=O)Nc2cc(=O)n(C)c(=O)n2C)=C(C)N1`, the TGI in the test with RXF-631 renal, in the test on XF 498 CNS, in the test on M19-MEL melanoma, in the test with DLD-1 colon, in the test on LXFL 529 NSCLC and in the test with KM20L2 colon was above 100 µM in each case. In the test with SNB-78 CNS, this compound had a TGI above 100 µM.
Take `COC(=O)NC(=O)c1cn(C2OC(CO)C(O)C2O)c(=O)[nH]c1=O` (configuration not stated): the TGI with M19-MEL melanoma, in the test with DLD-1 colon, in the test with LXFL 529 NSCLC, in the test on KM20L2 colon and with SNB-78 CNS was above 100 µM in each case.
Consider `Cc1cc(CC(=O)NCCO)n(CCO)c(=O)c1`, for which the TGI with HOP-18 NSCLC, in the test with RXF-631 renal, in the test on XF 498 CNS, in the test with M19-MEL melanoma, in the test with DLD-1 colon and in the test with LXFL 529 NSCLC was above 100 µM each time. In addition, the TGI in the test on SNB-78 CNS is above 100 µM.
Turning to `O=C(O)CCN(CCCCN(CCC(=O)O)CCC(=O)O)CCC(=O)O`, the TGI in the test on HOP-18 NSCLC, with XF 498 CNS, in the test on M19-MEL melanoma, in the test on DLD-1 colon and with LXFL 529 NSCLC was above 100 µM in each case.
Consider `COc1cc(C(O)CCBr)c(OC)cc1C` (configuration not stated), for which the TGI with MDA-N was above 20.9 µM.
For the compound `C=C1C(=O)O[C@@H]2C[C@@H](C)[C@@H]3C=CC(=O)[C@@]3(C)[C@@H](O)[C@H]12`, the TGI is 3.53 µM in the test on HOP-18 NSCLC; 5.66 µM in the test on MDA-N; 20.6 µM with M19-MEL melanoma; 1.49 µM in the test on DLD-1 colon; 1.68 µM in the test on LXFL 529 NSCLC; 3.87 µM in the test on KM20L2 colon.
Consider `NC(=O)C(=O)N/N=C1\C(=O)N(c2ccc(Cl)cc2Cl)C(=O)C1C(=O)Nc1ccc(Cl)cc1Cl` (configuration not stated), for which the TGI in the test on HOP-18 NSCLC, in the test with XF 498 CNS, in the test on M19-MEL melanoma, with DLD-1 colon, with LXFL 529 NSCLC and in the test with KM20L2 colon was above 100 µM each time. The same compound had a TGI in the test with SNB-78 CNS above 100 µM.
Turning to `CSC(=Nc1nnc(-c2ccc([N+](=O)[O-])cc2)s1)SC`, the TGI with HOP-18 NSCLC is above 71.6 µM; in the test with MDA-N, above 100 µM; with XF 498 CNS, 43.3 µM; with M19-MEL melanoma, above 100 µM; in the test with DLD-1 colon, above 100 µM; in the test with LXFL 529 NSCLC, above 100 µM. Besides, the TGI in the test on KM20L2 colon is above 100 µM; with SNB-78 CNS, 60.9 µM.
In the case of `CC1=C(c2ccccc2)C(c2ccccc2)=C(c2ccccc2)C2(c3ccccc3)C(=O)C(C)CN12` (configuration not stated), the TGI in the test on XF 498 CNS was 82.8 µM; in the test on M19-MEL melanoma, above 100 µM; with DLD-1 colon, above 100 µM; in the test with LXFL 529 NSCLC, above 100 µM; with KM20L2 colon, above 100 µM.
In the case of `COc1ccc(-c2cc3c(c4cc(OC)ccc24)C(=O)OC3=O)cc1`, the TGI with MDA-N is above 100 µM.
